# From ChEMBL document CHEMBL5223082, “Alkyl-Aryl-Vancomycins: Multimodal Glycopeptides with Weak Dependence on the Bacterial Metabolic State” (J Med Chem, 2021)
# Experiments:
# Staphylococcus aureus [1] = assay: Antibacterial activity against Methicillin-resistant Staphylococcus aureus ATCC 33591 assessed as inhibition of bacterial growth incubated for 18 to 24 hrs by CLSI microbroth dilution method; format: functional; conditions: time 18-24 hrs
# Enterococcus = assay: Antibacterial activity against Vancomycin-resistant Enterococci NR30909 assessed as inhibition of bacterial growth incubated for 18 to 24 hrs by CLSI microbroth dilution method; format: functional; conditions: time 18-24 hrs
# Staphylococcus aureus [2] = assay: Antibacterial activity against Methicillin-resistant Staphylococcus aureus ATCC 33591 persister cells assessed as log reduction in bacterial colonies at 9 uM incubated for 24 hrs in broth solution followed by incubation on agar plate for 48 hrs by spot plating method; format: functional; conditions: time 72 hrs
# Staphylococcus aureus [3] = assay: Antibiofilm activity against Methicillin-resistant Staphylococcus aureus ATCC 33591 assessed as log reduction in bacterial viability within the biofilms at 20 uM incubated for 24 hrs in broth solution followed by culturing on agar plate for 24 hrs by spot plating method; format: functional; conditions: time 48 hrs
# [4] = Toxicity in BALB/c mouse assessed as animal's survival rate at 55.5 mg/kg, ip measured for 14 days; format: organism-based; conditions: in vivo, time 14 day
smiles,measurement,setting,value
CCCCCCCCCCNC(=O)C[N+](C)(C)CCCNC(=O)c1ccc(CN[C@@]2(C)C[C@H](O[C@H]3[C@H](Oc4c5cc6cc4Oc4ccc(cc4Cl)[C@@H](O)[C@@H](NC(=O)[C@@H](CC(C)C)NC)C(=O)N[C@@H](CC(N)=O)C(=O)N[C@H]6C(=O)N[C@H]4C(=O)N[C@H](C(=O)N[C@H](C(=O)O)c6cc(O)cc(O)c6-c6cc4ccc6O)[C@H](O)c4ccc(c(Cl)c4)O5)O[C@H](CO)[C@@H](O)[C@@H]3O)O[C@@H](C)[C@H]2O)cc1,MIC,Staphylococcus aureus [1],0.9 µM
same,MIC,Enterococcus,0.9 µM
same,Activity,Staphylococcus aureus [2],6 log10CFU/ml
same,Activity,Staphylococcus aureus [3],2.2 log10CFU/ml
same,survival at 336 h,[4],100%
